Source: patent US10736909B2, “Use of trehalose for treatment of neurological diseases” (JUNAXO, INC., priority 2016, dated 2020)
Where two headings read alike, the source gives them in different places.

What was measured:
rats receiving A53T αSYN = test: Cylinder test of forelimb asymmetry in AAV1/2 A53T αSYN rat model of PD; format: in vivo, Sprague-Dawley rats; conditions: Day 42, 2.67 g/kg, once per day p.o.
Description: Thirty female, Sprague-Dawley rats (280-325 g) split into 5 groups (N=4-8 rats/group) and received a unilateral injection in to the substantia nigra (at co-ordinates AP −5.2 mm; ML −2 mm relative to Bregma, DV −7.5 mm relative to skull over SN) of AAV1/2 delivering A53T alpha-synuclein (AAV1/2 αSYN) or empty vector (control). The A53T αSyn expressed is of the human sequence. Its control is an empty AAV1/2 vector of the same serotype and viral construction. Both AAV1/2 vectors were diluted in sterile phosphate buffered saline and administered at a volume of 2 μl. […]
Animal behavior was assessed pre-surgery and at 3 and 6 weeks post-surgery. Behaviour was assessed by the cylinder test to assess forelimb asymmetry with asymmetry indicating an imbalance in striatal dopaminergic function between the side injected with AAV1/2 αSYN and the contralateral side. […] Striatal tissue from both hemispheres was collected and analysed for dopamine levels. Substantia nigra tissue was collected and analysed for the number of TH^+ve cells and the amount of A53T αSYN measured. Plasma and brain (cerebellum) samples were collected and trehalose levels analysed by LC-MS/MS.

[1] = Extrapolation from animal data to human plasma exposure; conditions: oral, humans, 2.67 g/kg, extrapolated from rat and macaque data, read-out: trehalose plasma Cmax (estimated)
Description: On a dose per body weight basis, trehalose produced very similar plasma and brain levels in rats and macaques (see FIG. 3 and Tables 6 and 7) when dosed with 2.67 g/kg/day. We also know that a trehalose dose of 2.67 g/kg/day was efficacious in the rat and non-human primate. Therefore, it is contemplated that an efficacious dose for humans includes 2.67 g/kg which is estimated to produce a trehalose plasma Cmax of ˜10000 ng/ml. From the rat data it is also clear that a dose of 0.89 g/kg will be ineffective.

MPTP-lesioned mouse = conditions: 2% trehalose in drinking water; Sarkar et al. 2014; cited from earlier work
Rotenone-lesioned rat = conditions: 2% trehalose in drinking water; Wu et al. 2015; cited from earlier work
[2] = tested on: Chronic MPTP-lesioned mouse; conditions: 1% in the drinking water; Ferguson et al. 2015; cited from earlier work
[3] = Brain and CSF trehalose levels in macaques after two days administration; format: in vivo; conditions: female, macaque, oral; for concentration at 1 h: 2.67 g/kg for two days
Description: In a subsequent step, the same 3 macaques were administered trehalose (2.67 g/kg) for two days. The macaques were then killed 1 h post-administration on day 2 and terminal brain and CSF samples collected. The brain and CSF trehalose levels were 81.3±13.8 ng/g and 562±346.5 ng/ml respectively. Similar to rats, trehalose levels in macaque brain tissue were ˜1% of the plasma level at the corresponding timepoint.

[4] = Plasma pharmacokinetics in macaques, 1 and 7 days oral administration; format: in vivo; conditions: for AUC(0-inf) / Cmax / Tmax / half-life / AUC(0-t): female, monkey, plasma, po, macaque plasma; for AUC(0-t): read-out: AUC0-24h
Description: Three female macaques (3.81-4.67 kg) received trehalose (2.67 and 5.34 g/kg/day, oral gavage in sterile water) for 7 days. Plasma samples were collected pre-dose and 15 min, 30 min, 1 h, 2 h, 4 h, 6 h, 12 h and 24 h post-dose on days 1 and 7 and analysed for trehalose levels using a validated LC-MS/MS method and plasma exposure time courses (FIG. 2) and pharmacokinetic parameters were calculated (Table 7).

AAV α-synuclein rat = conditions: 2 and 5% in drinking water; He et al. 2015; cited from earlier work
[5] = tested on: Transgenic α-synuclein mouse; conditions: 2% trehalose in drinking water; Tanji et al. 2015; cited from earlier work
α-synuclein (αSYN) = conditions: rodent models of PD; Tanji et al., He et al., Wu et al. 2015; cited from earlier work
[6] = 2.67 g/kg/day, 2.67 g/kg/day p.o., Day 1
[7] = 2.67 g/kg/day, 2.67 g/kg/day p.o., Day 7
[8] = 5.34 g/kg/day, 5.34 g/kg/day p.o., Day 1
[9] = 5.34 g/kg/day, 5.34 g/kg/day p.o., Day 7

In the case of OC[C@H]1O[C@H](O[C@H]2O[C@H](CO)[C@@H](O)[C@H](O)[C@H]2O)[C@H](O)[C@@H](O)[C@@H]1O [trehalose, (2R,3S,4S,5R,6R)-2-(Hydroxymethyl)-6-[(2R,3R,4S,5S,6R)-3,4,5-trihydroxy-6-(hydroxymethyl)oxan-2-yl]oxyoxane-3,4,5-triol], the “% asymmetry (mean ± s.e.mean)” value (rats receiving A53T αSYN) is listed as “reduced the asymmetry”, the Cmax [1] is listed as ~10000 ng/mL and the Effect (MPTP-lesioned mouse) is listed as “Neuroprotection”. For the same molecule, the Effect (Rotenone-lesioned rat) was “Neuroprotection”, the “Effect (behavioural)” value [2] was “No behavioural” and the “Effect on dopamine levels” value [2] was “effect. Some”. The concentration at 1 h ([3]; CSF, 1 h post-administration on day 2, read-out: CSF trehalose level) was 562 ± 346 ng/mL, the concentration at 1 h ([3]; brain, 1 h post-administration on day 2, read-out: brain trehalose level) was 81.3 ± 13.8 ng/g and the Kp at 1 h ([3]; brain, 2.67 g/kg, corresponding timepoint (1 h), read-out: brain trehalose level as % of plasma level) was ~0.01. The AUC(0-inf) [4, 6] was 27400 ng·h/mL, the Cmax [4, 6] was 10900 ng/mL and the Tmax [4, 6] was 49.8 min. The half-life [4, 6] was 66 min, the AUC(0-t) [4, 6] was 26700 ng·h/mL and the AUC(0-inf) [4, 7] was 27400 ng·h/mL. It also gave a Cmax [4, 7] of 9580 ng/mL, a Tmax [4, 7] of 40.2 min and a half-life [4, 7] of 90 min. It also gave an AUC(0-t) [4, 7] of 26000 ng·h/mL, an AUC(0-inf) [4, 8] of 80000 ng·h/mL and a Cmax [4, 8] of 37000 ng/mL. For the same molecule, the Tmax [4, 8] was 40.2 min, the half-life [4, 8] was 108 min and the AUC(0-t) [4, 8] was 78900 ng·h/mL. The AUC(0-inf) [4, 9] was 57200 ng·h/mL, the Cmax [4, 9] was 22400 ng/mL and the Tmax [4, 9] was 49.8 min. The half-life [4, 9] was 138 min, the AUC(0-t) [4, 9] was 56500 ng·h/mL and the “trehalose in plasma ~8 h post-dose” value ([4]; macaques, oral administration, ~8 h post-dose) was “No trehalose was measurable”. For the same molecule, the Effect (AAV α-synuclein rat) was “Neuroprotection”, the “Effect (autophagy)” value [5] was “Increased” and the “levels of α-synuclein (αSYN)” value (α-synuclein (αSYN)) was “reduces”.
